Measured values from ChEMBL document CHEMBL1208716, “Ceratinadins A-C, new bromotyrosine alkaloids from an Okinawan marine sponge Pseudoceratina sp” (2010).
In brackets after ≈: the same amount, converted by molar mass.

Experiments:
[1] = test system: Candida albicans; assay: Antifungal activity against Candida albicans; format: functional
[2] = test system: Cryptococcus neoformans; assay: Antifungal activity against Cryptococcus neoformans; format: functional

MIC [1] [µg/mL]	MIC [2] [µg/mL]	SMILES
4 (≈ 5.86 µM)	8 (≈ 11.7 µM)	COC1=C(Br)[C@H](O)[C@@]2(C=C1Br)CC(C(=O)NCCc1[nH]c(=N)[nH]c1-c1cc(O)c3[nH]cc(O)c(=O)c3c1O)=NO2 [CERATINADIN B]
2 (≈ 3 µM)	4 (≈ 5.99 µM)	COC1=C(Br)[C@H](O)[C@@]2(C=C1Br)CC(C(=O)NCCc1cn(-c3cc(O)c4[nH]cc(O)c(=O)c4c3O)cn1)=NO2 [CERATINADIN A]
> 32	> 32	N=c1[nH]cc(CCNC(=O)C2=NO[C@]3(C=C(Br)C(=O)[C@@H](Br)[C@@H]3O)C2)[nH]1 [CERATINADIN C]
